These are literature values, as cited in patent US20240197726A1, “NOVEL TETRAHYDROISOQUINOLINE ALKALOID COMPOUND CONTAINING MACROCYCLE” (THE UNIVERSITY OF TOKYO, priority 2021, published 2024).

Details in all cases: cited from earlier work
The test system of series [1] is MCF-7 breast cancer cells.
Series [2] deals with HCT-116 colorectal cancer cells.
Series [3] deals with NCI-H23 lung cancer cells.
The test system of series [4] is MDA-MB-231 breast cancer cells.
Series [5] deals with NCI-H460 lung cancer cells.
In series [6] the test system is HT-29 colorectal cancer cells.
Another series relates to A549 lung cancer cells.
Setting [7] is: MCF-7, reference values from literature (Leal et al. Br. J Pharmacol, 2010), read-out: GI50 value: 50% growth inhibitory concentration.
The mark [8] stands for this setting: HCT-116, reference values from literature (Leal et al. Br. J Pharmacol, 2010), read-out: GI50 value: 50% growth inhibitory concentration.
Where [9] appears, read: NCI-H23, reference values from literature (Leal et al. Br. J Pharmacol, 2010), read-out: GI50 value: 50% growth inhibitory concentration.
Setting [10] is: MDA-MB-231, reference values from literature (Leal et al. Br. J Pharmacol, 2010), read-out: GI50 value: 50% growth inhibitory concentration.
[11] abbreviates: NCI-H460, reference values from literature (Leal et al. Br. J Pharmacol, 2010), read-out: GI50 value: 50% growth inhibitory concentration.
The mark [12] stands for this setting: HT-29, reference values from literature (Leal et al. Br. J Pharmacol, 2010), read-out: GI50 value: 50% growth inhibitory concentration.
Where [13] appears, read: A549, reference values from literature (Leal et al. Br. J Pharmacol, 2010), read-out: GI50 value: 50% growth inhibitory concentration.
[14] abbreviates: MCF-7 breast cancer cells, comparative value based on the literature, read-out: antitumor activity GI50 value: 50% growth inhibitory concentration.
The mark [15] stands for this setting: HCT-116 colorectal cancer cells, comparative value based on the literature, read-out: antitumor activity GI50 value: 50% growth inhibitory concentration.
Where [16] appears, read: NCl-H23 lung cancer cells, comparative value based on the literature, read-out: antitumor activity GI50 value: 50% growth inhibitory concentration.
The mark [17] stands for this setting: MDA-MB-231 breast cancer cells, comparative value based on the literature, read-out: antitumor activity GI50 value: 50% growth inhibitory concentration.
[18] abbreviates: NCl--H460 lung cancer cells, comparative value based on the literature, read-out: antitumor activity GI50 value: 50% growth inhibitory concentration.
Setting [19] is: HT-29 colorectal cancer cells, comparative value based on the literature, read-out: antitumor activity GI50 value: 50% growth inhibitory concentration.
Where [20] appears, read: A549 lung cancer cells, comparative value based on the literature, read-out: antitumor activity GI50 value: 50% growth inhibitory concentration.

Like-named read-outs stand apart in the source and are kept apart here.

For `COc1cc2c(cc1O)CCN[C@]21CS[C@@H]2c3c(OC(C)=O)c(C)c4c(c3[C@H](COC1=O)N1[C@@H]2[C@H]2c3c(cc(C)c(OC)c3O)C[C@@H]([C@@H]1O)N2C)OCO4` [Ecteinascidin 743, reference compound], the GI50 in series [1] (setting [7]) was 2.6 nM; in series [2] (setting [8]), 4.9 nM; in series [3] (setting [9]), 2.1 nM; in series [4] (setting [10]), 3.9 nM; in series [5] (setting [11]), 1.8 nM; in series [6] (setting [12]) it was 9.8 nM. In addition, the GI50 with A549 lung cancer cells (setting [13]) is 10.4 nM.

For the compound `COc1c(C)cc2c(c1C)[C@H]1N(C)[C@@](C)(C2)C(C)N2C1(C)[C@@H]1CCC3(CCCC4=C3Cc3ccc(C)cc34)C(=O)OC[C@@]2(C)c2c3c(c(C)c(C)c21)OCO3` (stereo partly shown) [drawing 159], the GI50 in series [1] (setting [14]) is 1.7 nM; in series [2] (setting [15]) it was 6.4 nM; in series [3] (setting [16]), 5.3 nM; in series [4] (setting [17]), 3.4 nM; in series [5] (setting [18]), 1.5 nM; in series [6] (setting [19]), 2.4 nM. Besides, in the series with A549 lung cancer cells (setting [20]), the GI50 is 1.3 nM.

In the case of `COc1c(C)cc2c(c1C)[C@H]1N(C)[C@@](C)(C2)C(C)N2C1(C)[C@@H]1CCC3(CCCC4=C3Cc3ccc(C)cc34)C(=O)OC[C@@]2(C)c2c3c(c(C)c(C)c21)OCO3` (stereo partly shown) [drawing 163], the GI50 in series [1] (setting [14]) was 1.7 nM; in series [2] (setting [15]) it was 6.4 nM; in series [3] (setting [16]) it was 5.3 nM; in series [4] (setting [17]) it was 3.4 nM; in series [5] (setting [18]) it was 1.5 nM; in series [6] (setting [19]), 2.4 nM. The GI50 in the series with A549 lung cancer cells (setting [20]) was 1.3 nM.

As for `COc1ccc2[nH]c3c(c2c1)CCN[C@]31CS[C@@H]2c3c(OC(C)=O)c(C)c4c(c3[C@H](COC1=O)N1[C@@H]2[C@H]2c3c(cc(C)c(OC)c3O)C[C@@H]([C@@H]1O)N2C)OCO4` [lurbinectedin, reference compound], the GI50 in series [1] (setting [7]) was 1.7 nM; in series [2] (setting [8]), 6.4 nM; in series [3] (setting [9]), 5.3 nM; in series [4] (setting [10]) it was 3.4 nM; in series [5] (setting [11]), 1.5 nM; in series [6] (setting [12]) it was 2.4 nM. Further, the GI50 in the series with A549 lung cancer cells (setting [13]) was 1.3 nM.
